Assay results taken from publication PMC5936891, “A focused library synthesis and cytotoxicity of quinones derived from the natural product bolinaquinone” (Royal Society Open Science, 2018).

Columns and labels:
[1] = test system: HT29 (colon carcinoma); experiment: MTT in vitro growth inhibition assay, HT29; assay type: cell-based; conditions: Homo sapiens; for inhibition at 25 µM: HT-29, 25 µM of drug, 72 h, read-out: Percentage of Cell Growth Inhibition HT29; for GI50: HT-29, 72 h drug exposure
Text: (§1) With the desired bolinaquinone analogues 12–43 in hand, we examined their cytotoxicity against a panel of 11 tumour cell lines: HT29 (colon carcinoma), U87 and SJ-G2 (glioblastoma), MCF-7 (breast carcinoma), A2780 (ovarian carcinoma), H460 (lung carcinoma), A431 (skin carcinoma), Du145 (prostate carcinoma), BE2-C (neuroblastoma), MIA (pancreatic carcinoma), SMA (spontaneous murine astrocytoma) and a normal breast cell line (MCF10A). The inclusion of the MCF-10A cell line allowed a determination of a crude measure of relative toxicity while noting that the ultimate arbiter of toxicity requires in vivo evaluation. All analogues were initially screened at a 25 µM drug concentration.
(§2) Stock solutions were prepared as follows and stored at −20°C: drugs were stored as 40 mM solutions in DMSO. All cell lines were cultured in a humidified atmosphere 5% CO2 at 37°C. The cancer cell lines were maintained in Dulbecco's modified Eagle's medium (DMEM) (Trace Biosciences, Australia) supplemented with 10% fetal bovine serum, 10 mM sodium bicarbonate, penicillin (100 IU ml^−1), streptomycin (100 µg ml^−1) and glutamine (4 mM). The non-cancer MCF10A cell line was cultured in DMEM:F12 (1 : 1) cell culture media, 5% heat-inactivated horse serum, supplemented with penicillin (50 IU ml^−1), streptomycin (50 µg ml^−1), 20 mM Hepes, L-glutamine (2 mM), epidermal growth factor (20 ng ml^−1), hydrocortisone (500 ng ml^−1), cholera toxin (100 ng ml^−1) and insulin (10 ug ml^−1).
(§3) Cells in logarithmic growth were transferred to 96-well plates. Cytotoxicity was determined by plating cells in duplicate in 100 µl medium at a density of 2500–4000 cells per well. On day 0 (24 h after plating), when the cells were in logarithmic growth, 100 μl of medium with or without the test agent was added to each well. After 72 h, drug exposure growth inhibitory effects were evaluated using the MTT (3-[4,5-dimethylthiazol-2-yl]-2,5-diphenyl-tetrazolium bromide) assay and the absorbance read at 540 nm. Percentage growth inhibition was determined at a fixed drug concentration of 25 µM. A value of 100% is indicative of complete cell growth inhibition. Those analogues showing appreciable percentage growth inhibition underwent further dose–response analysis allowing for the calculation of a GI50 value. This value is the drug concentration at which cell growth is 50% inhibited based on the difference between the optical density values on day 0 and those at the end of drug exposure.

[2] = test system: U87 (glioblastoma); experiment: MTT in vitro growth inhibition assay, U87; assay type: cell-based; conditions: for inhibition at 25 µM: 25 µM of drug, 72 h, read-out: Percentage of Cell Growth Inhibition U87; for GI50: 72 h drug exposure
Text: as §1, §2, §3

[3] = test system: MCF-7 (breast carcinoma); experiment: MTT in vitro growth inhibition assay, MCF-7; assay type: cell-based; conditions: Homo sapiens; for inhibition at 25 µM: MCF7, 25 µM of drug, 72 h, read-out: Percentage of Cell Growth Inhibition MCF-7; for GI50: MCF7, 72 h drug exposure
Text: as §1, §2, §3

[4] = test system: A2780 (ovarian carcinoma); experiment: MTT in vitro growth inhibition assay, A2780; assay type: cell-based; conditions: Homo sapiens; for inhibition at 25 µM: 25 µM of drug, 72 h, read-out: Percentage of Cell Growth Inhibition A2780; for GI50: 72 h drug exposure
Text: as §1, §2, §3

[5] = test system: H460 (lung carcinoma); experiment: MTT in vitro growth inhibition assay, H460; assay type: cell-based; conditions: Homo sapiens; for inhibition at 25 µM: NCI-H460, 25 µM of drug, 72 h, read-out: Percentage of Cell Growth Inhibition H460; for GI50: NCI-H460, 72 h drug exposure
Text: as §1, §2, §3

[6] = test system: A431 (skin carcinoma); experiment: MTT in vitro growth inhibition assay, A431; assay type: cell-based; conditions: Homo sapiens; for inhibition at 25 µM: A-431, 25 µM of drug, 72 h, read-out: Percentage of Cell Growth Inhibition A431; for GI50: A-431, 72 h, 72 h drug exposure
Text: as §1, §2, §3

[7] = test system: Du145 (prostate carcinoma); experiment: MTT in vitro growth inhibition assay, Du145; assay type: cell-based; conditions: Homo sapiens; for inhibition at 25 µM: DU-145, 25 µM of drug, 72 h, read-out: Percentage of Cell Growth Inhibition Du145; for GI50: DU-145, 72 h, 72 h drug exposure
Text: as §1, §2, §3

[8] = test system: BE2-C (neuroblastoma); experiment: MTT in vitro growth inhibition assay, BE2-C; assay type: cell-based; conditions: Homo sapiens, BE(2)-C, 72 h; for inhibition at 25 µM: 25 µM of drug, read-out: Percentage of Cell Growth Inhibition BE2-C; for GI50: 72 h drug exposure
Text: as §1, §2, §3

[9] = test system: SJ-G2 (glioblastoma); experiment: MTT in vitro growth inhibition assay, SJ-G2; assay type: cell-based; conditions: for inhibition at 25 µM: 25 µM of drug, 72 h, read-out: Percentage of Cell Growth Inhibition SJ-G2; for GI50: 72 h drug exposure
Text: as §1, §2, §3

[10] = test system: MIA (pancreatic carcinoma); experiment: MTT in vitro growth inhibition assay, MIA; assay type: cell-based; conditions: for inhibition at 25 µM: 25 µM of drug, 72 h, read-out: Percentage of Cell Growth Inhibition MIA; for GI50: 72 h drug exposure
Text: as §1, §2, §3

[11] = test system: SMA (spontaneous murine astrocytoma); experiment: MTT in vitro growth inhibition assay, SMA; assay type: cell-based; conditions: Mus musculus; for inhibition at 25 µM: 25 µM of drug, 72 h, read-out: Percentage of Cell Growth Inhibition SMA; for GI50: 72 h drug exposure
Text: as §1, §2, §3

[12] = test system: MCF10A (normal breast cell line); experiment: MTT in vitro growth inhibition assay, MCF10A; assay type: cell-based; conditions: Homo sapiens, MCF-10A; for inhibition at 25 µM: 25 µM of drug, 72 h, read-out: Percentage of Cell Growth Inhibition MCF10A; for GI50: normal breast cell line, 72 h drug exposure
Text: as §1, §2, §3

Structure (SMILES) | inhibition at 25 µM [1] [%] | inhibition at 25 µM [2] [%] | inhibition at 25 µM [3] [%] | inhibition at 25 µM [4] [%] | inhibition at 25 µM [5] [%] | inhibition at 25 µM [6] [%] | inhibition at 25 µM [7] [%] | inhibition at 25 µM [8] [%] | inhibition at 25 µM [9] [%] | inhibition at 25 µM [10] [%] | inhibition at 25 µM [11] [%] | inhibition at 25 µM [12] [%] | melting point [°C] | GI50 [1] [µM] | GI50 [3] [µM] | GI50 [4] [µM] | GI50 [6] [µM] | GI50 [8] [µM] | GI50 [9] [µM] | GI50 [11] [µM] | also measured
CCCCc1ccc(C2=C(OC)C(=O)C(c3ccc(CCCC)cc3)=C(OC)C2=O)cc1 [compound 31, 2,5-Bis(4-butylphenyl)-3,6-dimethoxycyclohexa-2,5-diene-1,4-dione] | 73 ± 3 | 53 ± 3 | 73 ± 5 | 55 ± 9 | 52 ± 9 | 75 ± 2 | 83 ± 2 | 68 ± 3 | 56 ± 6 | 72 ± 2 | 54 ± 4 | 66 ± 2 | 177 to 179 | – | – | – | – | – | – | – | –
COC1=C(c2ccc3ccccc3c2)C(=O)C(OC)=C(c2ccc(OC)cc2OC)C1=O [compound 34, 2,5-Dimethoxy-3-(2,4-dimethoxyphenyl)-6-(naphthalene-3-yl)cyclohexa-2,5-diene-1,4-dione] | 82 ± 2 | 61 ± 4 | > 100 | 100 ± 1 | 49 ± 9 | 85 ± 2 | 41 ± 3 | > 100 | 83 ± 2 | 70 ± 1 | 98 ± 1 | 99 ± 2 | 159 to 161 | 10.2 ± 0.3 | 6.2 ± 0.31 | 6.1 ± 0.03 | 15 ± 1 | 9.6 ± 0.5 | 16 | 9.7 ± 0.6 | GI50 [2]: 22 ± 2 µM; GI50 [5]: 35 ± 6.9 µM; GI50 [7]: 27 ± 2.5 µM; GI50 [10]: 18 ± 0.33 µM; GI50 [12]: 12 ± 2.4 µM
COC1=CC(=O)C(OC)=C(c2cccc3ccccc23)C1=O [compound 25, 2,5-dimethoxy-3-(naphthalene-1-yl)cyclohexa-2,5-diene-1,4-dione] | 16 ± 3 | 10 ± 2 | 28 ± 2 | 66 ± 13 | < 10 | 8 ± 3 | 10 ± 5 | > 100 | 54 ± 19 | 18 ± 4 | 77 ± 3 | < 10 | 134 to 137 | 43 ± 5.5 | 29 ± 2 | 21 ± 1.3 | 47 ± 6.7 | 8 ± 0.5 | 22 ± 1.5 | 20 ± 1.3 | GI50 [10]: 42 ± 3.5 µM
COC1=C(c2ccc3ccccc3c2)C(=O)C(OC)=C(c2ccccc2-c2ccccc2)C1=O [compound 36, 2,5-Dimethoxy-3-(biaryl-2-yl)-6-(naphthalene-3-yl)cyclohexa-2,5-diene-1,4-dione] | > 100 | 57 ± 2 | > 100 | 87 ± 2 | 65 ± 3 | 78 ± 2 | 51 ± 3 | > 100 | 78 ± 5 | 78 ± 2 | 84 ± 7 | 77 ± 4 | 113 to 115 | 11 ± 0.9 | 5.1 ± 0.5 | 9 ± 0.6 | 15 ± 1.5 | 8.7 ± 0.7 | 13 ± 1.5 | 10 ± 0.3 | GI50 [2]: 20 ± 0.9 µM; GI50 [5]: 18 ± 2.3 µM; GI50 [7]: 21 ± 0.2 µM; GI50 [10]: 12 ± 0.7 µM; GI50 [12]: 15 ± 2.2 µM
COC1=CC(=O)C(OC)=C(c2ccccc2-c2ccccc2)C1=O [compound 29, 3-Biphenyl-2-yl-2,5-dimethoxycyclohexa-2,5-diene-1,4-dione] | 15 ± 1 | 14 ± 4 | 27 ± 5 | 77 ± 5 | 10 ± 4 | 14 ± 3 | 10 ± 2 | > 100 | 38 ± 9 | < 10 | 72 ± 9 | 21 ± 8 | 186 to 188 | – | 28 ± 2.6 | 17 ± 1.2 | – | 11 | 31 ± 0.58 | 20 ± 1.7 | GI50 [12]: 36 ± 3.8 µM
COC1=C(c2ccccc2)C(=O)C(OC)=C(c2cccc3ccccc23)C1=O [compound 32, 2,5-Dimethoxy-3-(naphthalen-1-yl)-6-phenylcyclohexa-2,5-diene-1,4-dione] | 15 ± 4 | 19 ± 2 | 22 ± 2 | 60 ± 17 | 20 ± 8 | 17 ± 2 | 18 ± 4 | 27 ± 15 | 19 ± 3 | 13 ± 1 | 58 ± 13 | 58 ± 15 | 168 to 170 | – | – | – | – | – | – | – | –
